Active and inactive are the calls of the source. A value given as a limit tells only on which side of the number the result lay.

Experiment [1] addresses DNA dC->dU-editing enzyme APOBEC-3G (Homo sapiens, UniProt Q9HC16). Nature of the experiment: Dose Response confirmation of small molecule APOBEC3G DNA Deaminase Inhibitors via a fluorescence-based single-stranded DNA deaminase assay. [Related pubchem assays (depositor defined):AID493012, AID493028]. It counts as functional.
Experiment [2] addresses DNA dC->dU-editing enzyme APOBEC-3A (Homo sapiens, UniProt P31941). Nature of the experiment: A3A deaminase inhibition for selectivity – biochemical, dose response (AID 504722). In kind it is functional.
Experiment [3] deals with T1, Mannose-6-phosphate isomerase (Homo sapiens, UniProt P34949).
T1 sequence (P34949 whole entry): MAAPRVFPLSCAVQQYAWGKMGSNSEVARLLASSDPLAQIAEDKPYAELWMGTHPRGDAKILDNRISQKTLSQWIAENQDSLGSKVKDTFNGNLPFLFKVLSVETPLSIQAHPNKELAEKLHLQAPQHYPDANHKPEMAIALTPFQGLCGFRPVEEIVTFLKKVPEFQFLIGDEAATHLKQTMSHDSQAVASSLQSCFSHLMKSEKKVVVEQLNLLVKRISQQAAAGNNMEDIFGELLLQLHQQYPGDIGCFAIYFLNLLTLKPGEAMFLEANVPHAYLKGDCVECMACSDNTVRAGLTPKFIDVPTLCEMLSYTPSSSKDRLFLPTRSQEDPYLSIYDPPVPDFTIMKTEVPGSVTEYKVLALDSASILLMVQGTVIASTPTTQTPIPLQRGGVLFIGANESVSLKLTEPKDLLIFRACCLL
Nature of the experiment: MPI inhibition at elevated mannose 6-phosphate – biochemical, fluorescence intensity, high mannose 6-phosphate, primary screen (AID 1220).

Experiment [4] deals with T2, Polyadenylate-binding protein 1 (Homo sapiens, UniProt P11940). Nature of the experiment: MLLE domain peptide-binding blockers, IC50 – biochemical, fluorescence polarization, FITC-PAM2 peptide, dose response (AID 602259). It counts as functional. Particulars: read-out: IC50_Mean. On the technique in general: Fluorescence polarisation rises when a labelled molecule tumbles more slowly, as on binding a larger partner.
T2 sequence (P11940 whole entry, the tested form may be a part): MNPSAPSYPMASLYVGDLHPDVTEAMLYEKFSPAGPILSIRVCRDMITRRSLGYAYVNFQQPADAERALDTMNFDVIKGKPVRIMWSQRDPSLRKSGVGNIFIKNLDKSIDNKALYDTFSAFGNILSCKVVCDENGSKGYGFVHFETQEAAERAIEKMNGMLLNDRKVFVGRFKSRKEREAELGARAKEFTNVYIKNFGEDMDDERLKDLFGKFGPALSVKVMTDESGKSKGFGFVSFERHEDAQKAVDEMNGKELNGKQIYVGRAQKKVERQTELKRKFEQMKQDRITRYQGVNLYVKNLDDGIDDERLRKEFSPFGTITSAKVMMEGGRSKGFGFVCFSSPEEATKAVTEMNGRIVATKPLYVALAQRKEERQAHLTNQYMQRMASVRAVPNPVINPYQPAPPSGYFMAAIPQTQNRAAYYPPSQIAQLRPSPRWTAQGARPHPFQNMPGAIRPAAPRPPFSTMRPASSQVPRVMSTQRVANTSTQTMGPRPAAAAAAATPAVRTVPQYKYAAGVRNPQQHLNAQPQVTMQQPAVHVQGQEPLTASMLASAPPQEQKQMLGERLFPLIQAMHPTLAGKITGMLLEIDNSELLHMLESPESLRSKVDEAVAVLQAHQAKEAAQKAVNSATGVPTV

Experiment [5] addresses T2, Polyadenylate-binding protein 1. Nature of the experiment: MLLE binding blockers, Cy5 peptide tracer – biochemical, fluorescence polarization, Cy5-PAM2 peptide, secondary, miRNA deadenylation inhibitor project, dose response (AID 602260). In kind it is functional. The settings on record: read-out: IC50_Mean.
Experiment [6] can be described thus: A High Throughput Confirmatory Assay used to Identify Novel Compounds that Inhibit Mycobacterium Tuberculosis in the absence of Glycerol. In kind it is functional.
The nature of experiment [7]: microbe, parasite or virus in culture. The settings on record: Mycobacterium tuberculosis. It counts as functional.
Experiment [8] concerns the target T3, Short transient receptor potential channel 4 (Mus musculus, UniProt Q9QUQ5).
T3 sequence (Q9QUQ5 whole entry): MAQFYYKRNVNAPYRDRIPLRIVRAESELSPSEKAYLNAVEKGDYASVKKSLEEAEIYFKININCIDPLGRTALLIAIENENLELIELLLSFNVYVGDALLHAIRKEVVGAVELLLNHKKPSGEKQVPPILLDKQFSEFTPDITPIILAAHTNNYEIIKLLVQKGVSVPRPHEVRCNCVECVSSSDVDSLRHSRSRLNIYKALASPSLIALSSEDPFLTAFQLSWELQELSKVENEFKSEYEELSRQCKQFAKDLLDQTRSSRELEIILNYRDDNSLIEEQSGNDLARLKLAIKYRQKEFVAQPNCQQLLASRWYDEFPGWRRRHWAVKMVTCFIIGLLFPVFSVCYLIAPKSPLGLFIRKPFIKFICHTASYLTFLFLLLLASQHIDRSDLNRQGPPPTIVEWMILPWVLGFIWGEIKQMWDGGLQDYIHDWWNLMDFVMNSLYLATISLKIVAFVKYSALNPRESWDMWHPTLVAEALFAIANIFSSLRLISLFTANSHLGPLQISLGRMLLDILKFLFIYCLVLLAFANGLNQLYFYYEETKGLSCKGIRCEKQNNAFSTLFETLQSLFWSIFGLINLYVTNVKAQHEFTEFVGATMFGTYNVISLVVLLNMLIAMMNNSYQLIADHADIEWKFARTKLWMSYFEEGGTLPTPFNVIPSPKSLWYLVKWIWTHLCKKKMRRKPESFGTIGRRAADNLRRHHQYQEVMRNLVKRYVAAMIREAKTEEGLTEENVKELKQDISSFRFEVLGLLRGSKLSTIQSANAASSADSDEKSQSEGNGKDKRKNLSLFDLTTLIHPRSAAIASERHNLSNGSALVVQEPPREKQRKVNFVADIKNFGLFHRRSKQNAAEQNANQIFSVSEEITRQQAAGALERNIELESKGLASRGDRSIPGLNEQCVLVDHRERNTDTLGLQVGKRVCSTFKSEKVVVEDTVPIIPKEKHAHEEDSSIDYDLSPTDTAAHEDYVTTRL
Nature of the experiment: block of DAMGO-driven TRPC4 calcium entry – cell-based, HEK293 TRPC4/mu-opioid, Fluo-4 calcium, dose response (AID 434942).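 Further: potency of inhibitors blocking the TRPC4 calcium response.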 In kind it is functional.

Experiment [9] in a line: viability loss of HPDE-C7K cells – cell-based, fluorescence, HTS, primary screen (AID 431). In kind it is functional. The settings on record: Homo sapiens.
The target of experiment [10] is T4, Heat shock factor protein 1 (Mus musculus, UniProt P38532).
T4 sequence (P38532 whole entry): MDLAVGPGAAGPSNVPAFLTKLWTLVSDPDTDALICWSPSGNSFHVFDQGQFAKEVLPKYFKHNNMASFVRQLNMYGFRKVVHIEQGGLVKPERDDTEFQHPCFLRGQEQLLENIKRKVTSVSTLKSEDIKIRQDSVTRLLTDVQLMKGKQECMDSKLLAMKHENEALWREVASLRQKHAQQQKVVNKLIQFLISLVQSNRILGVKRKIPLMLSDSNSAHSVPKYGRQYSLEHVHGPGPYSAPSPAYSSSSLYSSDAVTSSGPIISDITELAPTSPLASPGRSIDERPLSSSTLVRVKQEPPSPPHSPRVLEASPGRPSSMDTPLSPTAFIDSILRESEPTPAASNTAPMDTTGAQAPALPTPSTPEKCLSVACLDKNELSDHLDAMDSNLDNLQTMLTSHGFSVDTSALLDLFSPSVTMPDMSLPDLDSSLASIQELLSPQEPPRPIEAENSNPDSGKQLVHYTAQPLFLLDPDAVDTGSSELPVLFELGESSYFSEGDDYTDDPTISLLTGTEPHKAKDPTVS
Nature of the experiment: enhancement of HSF1-driven luciferase signal – cell-based, NIH3T3, luminescence, dose retest, confirmation (AID 435004).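 Further: stress induced by proteasome inhibitor MG132 added 30 min after compound; luciferase reporter driven by HSF1 response element in NIH3T3 cells; actives raise luminescence as potentiators of the MG132 stress response.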 It counts as functional.

For experiment [11], the target named is T5, Replicative DNA helicase DnaB (Mycobacterium tuberculosis, UniProt P9WMR3).
T5 sequence (P9WMR3 whole entry): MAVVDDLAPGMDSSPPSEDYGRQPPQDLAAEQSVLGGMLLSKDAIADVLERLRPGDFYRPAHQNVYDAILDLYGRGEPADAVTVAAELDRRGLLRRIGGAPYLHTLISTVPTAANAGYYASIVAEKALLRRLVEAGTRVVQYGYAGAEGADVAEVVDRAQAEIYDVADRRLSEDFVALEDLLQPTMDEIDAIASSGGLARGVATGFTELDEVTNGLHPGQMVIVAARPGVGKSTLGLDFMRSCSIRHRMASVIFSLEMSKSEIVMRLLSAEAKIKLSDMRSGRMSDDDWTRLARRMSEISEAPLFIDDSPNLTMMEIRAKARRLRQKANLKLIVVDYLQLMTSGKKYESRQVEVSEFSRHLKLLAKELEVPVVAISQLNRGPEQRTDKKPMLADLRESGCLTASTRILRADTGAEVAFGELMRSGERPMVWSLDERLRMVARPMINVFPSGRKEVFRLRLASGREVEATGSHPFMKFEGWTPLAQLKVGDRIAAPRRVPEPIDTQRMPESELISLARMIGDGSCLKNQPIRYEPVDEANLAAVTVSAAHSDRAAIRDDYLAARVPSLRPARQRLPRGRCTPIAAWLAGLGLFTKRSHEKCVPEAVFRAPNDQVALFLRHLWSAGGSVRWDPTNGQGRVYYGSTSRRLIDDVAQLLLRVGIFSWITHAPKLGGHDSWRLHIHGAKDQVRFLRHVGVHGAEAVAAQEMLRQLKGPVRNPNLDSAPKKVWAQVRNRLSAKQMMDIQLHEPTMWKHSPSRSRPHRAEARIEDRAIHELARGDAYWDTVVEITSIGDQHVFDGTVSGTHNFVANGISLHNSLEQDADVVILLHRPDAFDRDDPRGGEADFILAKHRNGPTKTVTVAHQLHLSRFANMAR
Nature of the experiment: DnaB intein splicing inhibitors, dose response, biochemical, cell-free fluorescence (AID 449749). It counts as functional.

Experiment [12] in a line: HPDE-C7 pancreatic duct cell viability loss – fluorescence, HTS (AID 430). In kind it is functional, cell-based. The settings on record: Homo sapiens.
The target in the next experiment is T6, Protein RecA (Mycobacterium tuberculosis, UniProt P9WHJ3).
T6 sequence (P9WHJ3 whole entry): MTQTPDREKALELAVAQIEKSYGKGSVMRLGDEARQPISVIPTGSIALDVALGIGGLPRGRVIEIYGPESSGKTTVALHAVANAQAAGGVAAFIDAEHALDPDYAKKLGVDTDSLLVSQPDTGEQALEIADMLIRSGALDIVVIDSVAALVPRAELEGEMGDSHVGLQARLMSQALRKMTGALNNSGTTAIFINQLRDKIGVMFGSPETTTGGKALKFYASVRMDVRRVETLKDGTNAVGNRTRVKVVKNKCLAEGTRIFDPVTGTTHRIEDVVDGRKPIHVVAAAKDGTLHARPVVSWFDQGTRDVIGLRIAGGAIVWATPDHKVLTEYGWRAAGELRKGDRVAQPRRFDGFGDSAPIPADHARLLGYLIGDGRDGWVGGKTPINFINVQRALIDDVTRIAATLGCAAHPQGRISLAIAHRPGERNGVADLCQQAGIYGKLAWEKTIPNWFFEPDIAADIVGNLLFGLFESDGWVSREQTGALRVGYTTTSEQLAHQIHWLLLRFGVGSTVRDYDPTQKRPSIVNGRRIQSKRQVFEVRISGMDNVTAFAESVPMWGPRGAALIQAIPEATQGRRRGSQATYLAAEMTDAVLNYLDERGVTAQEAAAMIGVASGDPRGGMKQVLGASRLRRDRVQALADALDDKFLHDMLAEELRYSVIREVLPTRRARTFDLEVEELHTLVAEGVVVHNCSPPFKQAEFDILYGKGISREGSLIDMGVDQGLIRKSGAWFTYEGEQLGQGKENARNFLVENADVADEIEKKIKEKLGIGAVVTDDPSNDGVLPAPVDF
Nature of the experiment: Fluorescence Cell-Free Homogeneous Dose Retest to Identify Inhibitors of RecA-Intein Splicing Activity. [Related pubchem assays (depositor defined):AID2097, AID2223, AID489010, AID492950]. It counts as functional.

In the next experiment the target is Estrogen receptor beta (Homo sapiens, UniProt Q92731).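 Further: recombinant ER-beta bound to coactivator SRC1 peptide in presence of estradiol agonist; inhibitors block coactivator peptide binding and lower the FRET signal.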
Sequence of Estrogen receptor beta (Q92731 whole entry): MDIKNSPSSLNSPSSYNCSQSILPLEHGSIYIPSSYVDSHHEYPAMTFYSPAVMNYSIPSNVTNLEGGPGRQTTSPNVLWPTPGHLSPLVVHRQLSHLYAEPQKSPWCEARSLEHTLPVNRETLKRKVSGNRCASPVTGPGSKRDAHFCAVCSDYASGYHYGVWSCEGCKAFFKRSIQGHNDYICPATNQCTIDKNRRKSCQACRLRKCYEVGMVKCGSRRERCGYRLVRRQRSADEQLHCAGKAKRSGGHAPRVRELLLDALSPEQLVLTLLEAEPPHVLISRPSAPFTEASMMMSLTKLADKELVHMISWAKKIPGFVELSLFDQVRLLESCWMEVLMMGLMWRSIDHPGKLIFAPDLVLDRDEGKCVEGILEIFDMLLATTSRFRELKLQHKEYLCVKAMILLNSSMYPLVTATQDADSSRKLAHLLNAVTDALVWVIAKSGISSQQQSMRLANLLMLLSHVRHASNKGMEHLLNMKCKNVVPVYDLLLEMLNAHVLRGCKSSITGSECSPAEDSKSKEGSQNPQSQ
In experiment [13] the target is Mitogen-activated protein kinase 10 (Homo sapiens, UniProt P53779). Nature of the experiment: Dose response biochemical screening assay for inhibitors of c-Jun N-Terminal Kinase 3 (JNK3). [Related pubchem assays: 746 ].
Sequence of Mitogen-activated protein kinase 10 (P53779 whole entry): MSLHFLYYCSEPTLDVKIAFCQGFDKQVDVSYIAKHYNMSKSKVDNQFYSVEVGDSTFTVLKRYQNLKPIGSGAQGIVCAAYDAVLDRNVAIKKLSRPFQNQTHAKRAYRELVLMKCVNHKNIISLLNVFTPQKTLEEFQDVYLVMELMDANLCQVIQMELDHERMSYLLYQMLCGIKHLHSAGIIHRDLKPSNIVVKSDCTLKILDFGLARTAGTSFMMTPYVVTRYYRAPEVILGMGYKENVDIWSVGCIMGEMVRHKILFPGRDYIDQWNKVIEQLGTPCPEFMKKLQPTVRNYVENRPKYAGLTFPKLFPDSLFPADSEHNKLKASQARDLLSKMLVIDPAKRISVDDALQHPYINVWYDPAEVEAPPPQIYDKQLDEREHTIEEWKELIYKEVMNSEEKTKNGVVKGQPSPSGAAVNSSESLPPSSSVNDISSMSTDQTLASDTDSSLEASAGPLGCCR
A short description of experiment [14]: decrease of insulin promoter-GFP reporter – imaging, high-content screening, mouse beta cells (AID 1628). Particulars: MIN6. In kind it is functional.
A short description of experiment [15]: MIN6 cell viability loss – mouse insulinoma, cytotoxicity control, dose response (AID 2122).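 Further: confirmatory high-throughput counterscreen run to flag cytotoxic compounds.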 It counts as functional.

Sequence of DNA dC->dU-editing enzyme APOBEC-3G (Q9HC16 whole entry): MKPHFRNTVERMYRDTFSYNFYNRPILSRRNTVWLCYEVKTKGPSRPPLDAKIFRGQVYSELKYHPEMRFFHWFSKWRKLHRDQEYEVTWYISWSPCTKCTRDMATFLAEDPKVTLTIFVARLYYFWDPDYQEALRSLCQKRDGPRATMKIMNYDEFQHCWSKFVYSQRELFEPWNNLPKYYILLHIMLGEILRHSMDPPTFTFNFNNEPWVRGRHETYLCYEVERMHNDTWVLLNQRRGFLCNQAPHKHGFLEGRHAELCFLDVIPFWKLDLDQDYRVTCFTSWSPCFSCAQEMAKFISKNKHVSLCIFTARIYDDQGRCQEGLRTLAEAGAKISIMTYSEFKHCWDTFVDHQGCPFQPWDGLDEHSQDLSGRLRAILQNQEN
Sequence of DNA dC->dU-editing enzyme APOBEC-3A (P31941 whole entry): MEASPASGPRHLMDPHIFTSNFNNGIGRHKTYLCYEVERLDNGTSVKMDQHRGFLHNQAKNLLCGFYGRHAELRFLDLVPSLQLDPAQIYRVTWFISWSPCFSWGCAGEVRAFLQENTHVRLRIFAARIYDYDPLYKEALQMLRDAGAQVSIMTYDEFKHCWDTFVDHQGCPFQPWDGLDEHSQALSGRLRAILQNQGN

For the compound `CCn1c(O)nc(CS(=O)(=O)c2ccccc2)c1C`, the IC50 in experiment [1] was 6.9 µM (active); in [2], > 100 µM (inactive); in [3], 1.23 µM (active); in experiment [4], > 66 µM (inactive); in [5] it was > 66 µM (inactive).

Regarding `COc1ccc(-c2cc(-c3ccc(OC)cc3)[nH]n2)cc1`, the IC50 in experiment [6] was > 50 µM (active).

On to `N#Cc1cccc2c1-c1ccccc1/C2=N/NC(N)=O`, for which, in experiment [7], the CC50 was > 40 µM (active). The IC50 in experiment [6] is > 100 µM (active). Besides, the EC50 – broadly, the concentration at which the effect is half-maximal – in [8] was 0.0533 µM (active).

As for `COc1ccccc1-n1nnnc1S(=O)(=O)Cc1ccc(Cl)cc1`, the EC50 was 9.56 µM (active) in [9], 17.3 µM (active) in experiment [10], 6.84 µM (active) in [12] and 1.94 µM (active) on Protein RecA. Also, the AC50 (usually the concentration giving half of the maximal activity seen) in experiment [11] is 5.1 µM (active).

Consider `O=S(=O)(Nc1ncnc2sc3c(c12)CCC3)c1ccc2ccccc2c1`, for which, on Estrogen receptor beta, the IC50 was 25 µM (active).

With `Cc1ccc2[nH]c3c(c2c1)CCc1c[nH]nc1-3`, the IC50 in experiment [13] was 16.4 µM (not active); in [3], 43.4 µM (active).

In the case of `Cc1ccc(C(C)C)c(OCC(=O)Nc2ccccc2N2CCN(C)CC2)c1`, the figures for the IC50 in experiment [14] and in experiment [15] were 2.58 µM (active) and 6.82 µM (active), respectively. The EC50 in experiment [9] and in experiment [12] was > 20 µM (not active) in each case.

For the origin of these results see ChEMBL document CHEMBL1201862, “PubChem BioAssay data set” (2004).
